Six compounds from patent US20180289620A1, “NANOPARTICLE FORMULATIONS AND USES THEREOF” (Abraxis BioScience, LLC, priority 2008, published 2018) can be followed below.

Where two headings read alike, the source gives them in different places.

Series [1] is described as follows: Log P of hydrophobic taxane derivatives. In kind it is physicochemical. The note with it: method not stated.
Series [2] concerns MX-1 (human breast carcinoma) cells. Briefly: In vitro growth inhibition (cytotoxicity, CellTiter Blue Cell Viability Assay). In kind it is cell-based. The note with it: cells exposed 72 hr. The procedure: A cytotoxicity assay was quantitated using the Promega CellTiter Blue Cell Viability Assay. Briefly, cells (5000 cells/well) were plated onto 96-well microtiter plates in RPMI 1640 medium supplemented with 10% FBS and incubated at 37° C. in a humidified 5% CO2 atmosphere. After 24 hr., cells were exposed to various concentrations of hydrophobic taxane derivative in DMSO and cultured for another 72 hr, 100 uL of media were removed and 20 uL of Promega CellTiter Blue reagent were added to each well and shaken to mix. After 4 hours of incubation at 37° C. in a humidified 5% CO2 atmosphere, the plates were read at 544 ex/620 em. The fluorescence produced is proportional to the number of viable cells. After plotting fluorescence produced against drug concentration, the IC50 was calculated as the […] of the resulting non-linear regression.
(The colour change of resazurin is a common sign of viable cells or microbes.)

A short description of series [3]: Pharmacokinetics of Nab-2 in monkeys. Type of series: in vivo. The note with it: cynomolgus monkey; for AUCINF/D / Cmax/D / HL_Lambda_z / AUC(0-inf) / Cmax / Tmax / concentration at 0 hr / concentration at […] / concentration at 0.25 hr / concentration at 0.5 hr / concentration at 1 hr / concentration at 2 hr / concentration at 8 hr: label = analyte; for AUC(0-inf) / Cmax / Tmax / concentration at 0 hr / concentration at […] / concentration at 0.25 hr / concentration at 0.5 hr / concentration at 1 hr / concentration at 2 hr / concentration at 8 hr / clearance / Vd: male, blood; for concentration at […]: time 0.083 hr; for Vd: iv. The source says:
The day of the initial dose administration was designated Study Day 1, with subsequent days consecutively numbered. Days on study prior to the initial dose administration were consecutively numbered with the final day of acclimation referenced as day −1.
Three non-naïve, male cynomolgus monkeys, confirmed to have no prior exposure to albumin, were assigned to dose groups as specified in Table 6 shown below. Animals weighed 5.4-6.7 kg and were 4 to 7 years of age at study initiation.
All animals were dosed once weekly, on days 1, 8 and 15. Animals in Groups 3 and 4 were administered Nab-2 (lot: ABI139-2-83) at 5 and 10 mg/kg, respectively, and the Group 5 animal was administered Nab-2 at 20, 10 and 10 mg/kg (on days 1, 8 and 15, respectively) via 30 minute intravenous infusion. Clinical observations were performed twice daily and body weights were recorded weekly throughout the study.

The logP is the decadic logarithm of the partition coefficient of the neutral form, usually between octanol and water. Usually IC50 stands for the point on the concentration scale where inhibition reaches its midpoint. Compound `CCC(=O)O[C@@H](C(=O)O[C@H]1C[C@@]2(O)[C@@H](OC(=O)c3ccccc3)C3[C@](C)(C(=O)[C@H](O)C(=C1C)C2(C)C)[C@@H](O)C[C@H]1OC[C@@]31OC(C)=O)[C@@H](NC(=O)OC(C)(C)C)c1ccccc1` (stereo partly drawn) [Compound 5, 2′-Propionyl-Docetaxel] returned a logP in series [1] of 5.31. In series [2], the half-inhibitory concentration (IC50) turned out to be 209 µM.

In series [1], `CC(=O)O[C@@]12CO[C@@H]1C[C@H](O)[C@@]1(C)C(=O)[C@H](O)C3=C(C)[C@@H](OC(=O)[C@H](OC(=O)c4ccccc4)[C@@H](NC(=O)OC(C)(C)C)c4ccccc4)C[C@@](O)([C@@H](OC(=O)c4ccccc4)C12)C3(C)C` (stereo partly drawn) [Compound 1, 2′-Benzoyl-Docetaxel] yielded a logP of 6.67. Further, in series [2], the IC50 turned out to be 38.4 µM.

As a reminder, the Log P is a log measure of how a compound divides between an organic and an aqueous phase. What is called AUC(0-inf) is total exposure, with the tail of the curve extrapolated. The Cmax is the highest concentration seen after dosing. As a reminder, the Tmax is the time from dosing to the highest level. As for `CC(=O)O[C@@]12CO[C@@H]1C[C@H](O)[C@@]1(C)C(=O)[C@H](O)C3=C(C)[C@@H](OC(=O)[C@H](O)[C@@H](NC(=O)OC(C)(C)C)c4ccccc4)C[C@@](O)([C@@H](OC(=O)c4ccccc4)C12)C3(C)C` (stereo partly drawn) [Docetaxel, docetaxel, reference compound], the “Log P” value in series [1] was determined as 4.20. In series [3] (Nab-2 IV 5 mg/kg), this compound yielded an AUCINF/D of 35 kg·ng·h/mL/mg, a Cmax/D of 8 kg·ng/mL/mg, an HL_Lambda_z of 1.4 h and a total exposure AUC(0-inf) of 175 ng·h/mL. For the same compound, in series [3] (Nab-2 IV 5 mg/kg), the Cmax stood at 41 ng/mL, the time of peak concentration (Tmax) is 15 min, the concentration at 0 hr amounted to 0 ng/mL and the concentration at […] worked out at 36.7 ng/mL. In series [3] (Nab-2 IV 5 mg/kg), this compound showed a concentration at 0.25 hr of 40.7 ng/mL, a concentration at 0.5 hr of 35.5 ng/mL, a concentration at 1 hr of 32.1 ng/mL and a concentration at 2 hr of 34.1 ng/mL. This compound returned a concentration at 8 hr in series [3] (Nab-2 IV 5 mg/kg) of 1.15 ng/mL. In series [3] (Nab-2 IV 10 mg/kg), the AUCINF/D came to 31 kg·ng·h/mL/mg, the Cmax/D was determined as 10 kg·ng/mL/mg, the HL_Lambda_z worked out at 3.2 h and the area under the curve AUC(0-inf) is 314 ng·h/mL. In series [3] (Nab-2 IV 10 mg/kg), the Cmax worked out at 99 ng/mL, the concentration at 0 hr is 0 ng/mL, the concentration at […] was determined as 99.4 ng/mL and the concentration at 0.25 hr was determined as 70.1 ng/mL. In series [3] (Nab-2 IV 10 mg/kg), this compound had a concentration at 0.5 hr of 63.4 ng/mL, a concentration at 1 hr of 47.5 ng/mL, a concentration at 2 hr of 44.2 ng/mL and a concentration at 8 hr of 0 ng/mL. For the same compound, in series [3] (Nab-2 IV 20 mg/kg), the AUCINF/D turned out to be 20 kg·ng·h/mL/mg, the Cmax/D was found to be 19 kg·ng/mL/mg, the HL_Lambda_z came to 1.4 h and the AUC(0-inf) was 394 ng·h/mL. Also, in series [3] (Nab-2 IV 20 mg/kg), the Cmax was determined as 382 ng/mL, the concentration at 0 hr was found to be 0 ng/mL, the concentration at […] came to 382 ng/mL and the concentration at 0.25 hr was found to be 232 ng/mL. In series [3] (Nab-2 IV 20 mg/kg), the concentration at 0.5 hr was 157 ng/mL, the concentration at 1 hr was 90.5 ng/mL, the concentration at 2 hr worked out at 69.2 ng/mL and the concentration at 8 hr was determined as 0 ng/mL.

Compound `CCCCC(=O)O[C@@H](C(=O)O[C@H]1C[C@@]2(O)[C@@H](OC(=O)c3ccccc3)C3[C@](C)(C(=O)[C@H](O)C(=C1C)C2(C)C)[C@@H](O)C[C@H]1OC[C@@]31OC(C)=O)[C@@H](NC(=O)OC(C)(C)C)c1ccccc1` (stereo partly drawn) [Compound 4, 2′-Valeryl-Docetaxel] had a logP in series [1] of 6.37. For the same compound, the midpoint of inhibition in series [2], the IC50, lay at 211 µM.

As for `CCCCCCCCCC(=O)O[C@@H](C(=O)O[C@H]1C[C@@]2(O)[C@@H](OC(=O)c3ccccc3)C3[C@](C)(C(=O)[C@H](O)C(=C1C)C2(C)C)[C@@H](O)C[C@H]1OC[C@@]31OC(C)=O)[C@@H](NC(=O)OC(C)(C)C)c1ccccc1` (stereo partly drawn) [Compound 3, 2′-Decanoyl-Docetaxel], inhibition in series [2] was half-maximal at 8.8 µM (IC50).

For orientation: clearance means the volume of plasma or blood freed of the substance per unit of time. As for `CCCCCC(=O)O[C@@H](C(=O)O[C@H]1C[C@@]2(O)[C@@H](OC(=O)c3ccccc3)C3[C@](C)(C(=O)[C@H](O)C(=C1C)C2(C)C)[C@@H](O)C[C@H]1OC[C@@]31OC(C)=O)[C@@H](NC(=O)OC(C)(C)C)c1ccccc1` (stereo partly drawn) [Compound 2, 2′-Hexanoyl Docetaxel], the logP in series [1] was determined as 6.44. The concentration for half-maximal inhibition (IC50) in series [2] came out at 103 µM. Also, in series [3] (Nab-2 IV 5 mg/kg), the AUCINF/D came to 723 kg·ng·h/mL/mg, the Cmax/D is 215 kg·ng/mL/mg, the HL_Lambda_z stood at 3.6 h and the clearance is 23.1 mL/min/kg. Further, in series [3] (Nab-2 IV 5 mg/kg), the AUC(0-inf) is 3610 ng·h/mL, the Cmax came out at 1070 ng/mL, the time of peak concentration (Tmax) turned out to be 4.98 min and the concentration at 0 hr was determined as 0 ng/mL. In series [3] (Nab-2 IV 5 mg/kg), this compound registered a concentration at […] of 1070 ng/mL, a concentration at 0.25 hr of 940 ng/mL, a concentration at 0.5 hr of 774 ng/mL and a concentration at 1 hr of 534 ng/mL. In series [3] (Nab-2 IV 5 mg/kg), this compound returned a concentration at 2 hr of 422 ng/mL and a concentration at 8 hr of 136 ng/mL. Besides, in series [3] (Nab-2 IV 10 mg/kg), the AUCINF/D was 535 kg·ng·h/mL/mg, the Cmax/D came out at 155 kg·ng/mL/mg, the HL_Lambda_z is 3.7 h and the clearance is 31.2 mL/min/kg. For the same compound, in series [3] (Nab-2 IV 10 mg/kg), the area under the curve AUC(0-inf) came out at 5350 ng·h/mL, the Cmax stood at 1550 ng/mL, the Tmax amounted to 4.98 min and the concentration at 0 hr was 0 ng/mL. Also, in series [3] (Nab-2 IV 10 mg/kg), the concentration at […] was 1550 ng/mL, the concentration at 0.25 hr is 1300 ng/mL, the concentration at 0.5 hr was 936 ng/mL and the concentration at 1 hr came out at 734 ng/mL. In series [3] (Nab-2 IV 10 mg/kg), this compound yielded a concentration at 2 hr of 657 ng/mL and a concentration at 8 hr of 202 ng/mL. In series [3] (Nab-2 IV 20 mg/kg), this compound had an AUCINF/D of 393 kg·ng·h/mL/mg, a Cmax/D of 131 kg·ng/mL/mg, an HL_Lambda_z of 3.0 h and a clearance of 42.4 mL/min/kg. In addition, in series [3] (Nab-2 IV 20 mg/kg), the total exposure AUC(0-inf) came out at 7860 ng·h/mL, the highest level (Cmax) was 2620 ng/mL, the time to peak (Tmax) worked out at 15 min and the concentration at 0 hr turned out to be 0 ng/mL. Besides, in series [3] (Nab-2 IV 20 mg/kg), the concentration at […] worked out at 2390 ng/mL, the concentration at 0.25 hr came out at 2620 ng/mL, the concentration at 0.5 hr amounted to 1820 ng/mL and the concentration at 1 hr was 1370 ng/mL. In series [3] (Nab-2 IV 20 mg/kg), this compound had a concentration at 2 hr of 958 ng/mL and a concentration at 8 hr of 264 ng/mL. Further, the Vd in series [3] (5 mg/kg, Nab-2 IV 5 mg/kg, read-out: Vss) was determined as 5.84 L/kg. Also, the Vd in series [3] (5 mg/kg, Nab-2 IV 5 mg/kg, read-out: Vz) was 7.18 L/kg. The Vd in series [3] (10 mg/kg, Nab-2 IV 10 mg/kg, read-out: Vss) amounted to 8.12 L/kg. In addition, the Vd in series [3] (10 mg/kg, Nab-2 IV 10 mg/kg, read-out: Vz) came out at 9.93 L/kg. Moreover, the Vd in series [3] (20 mg/kg, Nab-2 IV 20 mg/kg, read-out: Vss) stood at 8.74 L/kg. The Vd in series [3] (20 mg/kg, Nab-2 IV 20 mg/kg, read-out: Vz) stood at 11.2 L/kg. Also, in series [3] (Nab-2 IV 5-20 mg/kg, read-out: volume of distribution Vz), the Vd was 7 to 11 L/kg.
